The source of these data is ChEMBL document CHEMBL3108777, “Isochromans and α-pyrones from Penicillium corylophilum” (J Nat Prod, 2014).

pIC50: −log10 of the molar value. Converted amounts (≈) assume the structure as drawn. The source made the active and inactive calls. No cut-off for these calls is given here. Some results are limits rather than exact numbers.

One assay deals with Saccharomyces cerevisiae. Briefly: Antifungal activity against Saccharomyces cerevisiae assessed as growth inhibition measured every 4 hrs. In kind it is functional.
A further assay relates to Pseudomonas putida. As to the kind of experiment: Antibacterial activity against Pseudomonas putida ATCC 12633 at <50 ug/ml measured every 1 hr. The format is functional, organism-based.
In the next assay the test system is Bacillus subtilis. Briefly: Antibacterial activity against Bacillus subtilis ATCC 23857 at <50 ug/ml measured every 1 hr. The format is functional, organism-based.
A short description of assay [1]: Inhibition of DNA gyrase (unknown origin)-mediated DNA relaxation.
Assay [2] is described as follows: Inhibition of DNA gyrase (unknown origin)-mediated DNA supercoiling.
Assay [3] deals with DNA topoisomerase 2-alpha (Homo sapiens, UniProt P11388). As to the kind of experiment: Inhibition of topoisomerase-2 (unknown origin).
Chain of DNA topoisomerase 2-alpha (P11388 whole entry): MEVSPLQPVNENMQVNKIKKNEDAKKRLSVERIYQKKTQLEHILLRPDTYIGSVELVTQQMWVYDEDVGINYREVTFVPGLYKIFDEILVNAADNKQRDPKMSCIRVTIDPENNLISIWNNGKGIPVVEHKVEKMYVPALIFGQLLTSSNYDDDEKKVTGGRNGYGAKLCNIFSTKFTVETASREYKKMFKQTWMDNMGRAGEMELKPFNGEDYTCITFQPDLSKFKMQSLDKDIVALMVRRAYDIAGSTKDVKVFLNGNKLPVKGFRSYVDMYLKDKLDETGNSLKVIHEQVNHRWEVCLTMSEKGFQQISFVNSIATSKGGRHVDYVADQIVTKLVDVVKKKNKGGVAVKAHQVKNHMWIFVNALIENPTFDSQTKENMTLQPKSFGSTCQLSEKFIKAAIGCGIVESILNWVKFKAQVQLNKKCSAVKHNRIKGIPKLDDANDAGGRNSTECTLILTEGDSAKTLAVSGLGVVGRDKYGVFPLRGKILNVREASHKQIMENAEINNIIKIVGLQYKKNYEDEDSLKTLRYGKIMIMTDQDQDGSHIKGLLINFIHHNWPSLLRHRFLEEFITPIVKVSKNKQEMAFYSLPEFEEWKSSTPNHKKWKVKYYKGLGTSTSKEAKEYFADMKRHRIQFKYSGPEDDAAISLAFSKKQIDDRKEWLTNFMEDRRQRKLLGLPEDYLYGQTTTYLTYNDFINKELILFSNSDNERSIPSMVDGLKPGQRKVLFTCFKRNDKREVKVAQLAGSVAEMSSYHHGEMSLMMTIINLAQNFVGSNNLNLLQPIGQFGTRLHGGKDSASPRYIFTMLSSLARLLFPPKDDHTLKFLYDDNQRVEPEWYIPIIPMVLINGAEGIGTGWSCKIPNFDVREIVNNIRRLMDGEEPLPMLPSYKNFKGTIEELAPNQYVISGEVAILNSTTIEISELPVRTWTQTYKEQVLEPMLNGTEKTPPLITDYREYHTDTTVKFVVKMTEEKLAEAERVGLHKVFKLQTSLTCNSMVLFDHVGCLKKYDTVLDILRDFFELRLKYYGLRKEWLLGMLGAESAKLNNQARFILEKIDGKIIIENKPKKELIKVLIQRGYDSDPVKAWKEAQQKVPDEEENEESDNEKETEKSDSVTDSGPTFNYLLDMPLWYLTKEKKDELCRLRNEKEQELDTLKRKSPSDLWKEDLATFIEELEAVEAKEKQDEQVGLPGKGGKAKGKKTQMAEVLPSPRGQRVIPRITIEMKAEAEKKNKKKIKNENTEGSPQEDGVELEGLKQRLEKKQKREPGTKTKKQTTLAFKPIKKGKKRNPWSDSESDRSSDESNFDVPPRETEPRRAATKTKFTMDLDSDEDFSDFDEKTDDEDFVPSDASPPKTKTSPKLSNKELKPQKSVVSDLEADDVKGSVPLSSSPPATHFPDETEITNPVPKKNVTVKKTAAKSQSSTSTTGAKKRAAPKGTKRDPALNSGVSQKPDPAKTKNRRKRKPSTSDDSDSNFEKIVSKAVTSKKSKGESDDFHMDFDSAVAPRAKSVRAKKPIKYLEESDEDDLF

As to `C[C@@H](O)CCCCC[C@H]1Cc2cc(O)c(C(=O)O)c(O)c2[C@@H](O)O1`, in the assay with Saccharomyces cerevisiae, the MIC amounted to 100 µg/mL (≈ 294 µM). The outcome with Pseudomonas putida and with Bacillus subtilis was inactive.

Turning to `C[C@@H](O)CCCCC[C@H]1Cc2cc(O)c(C(=O)O)c(O)c2CO1`, the minimum inhibitory concentration (MIC) with Saccharomyces cerevisiae came to 100 µg/mL (≈ 308 µM). For the same molecule, the result in the assay with Pseudomonas putida and in the assay on Bacillus subtilis was inactive.

As to `O=C(O)c1c(O)cc2c(c1O)[C@@H](O)O[C@@H](CCCCCCCO)C2`, in the assay with Saccharomyces cerevisiae, the MIC stood at 100 µg/mL (≈ 294 µM). The result with Pseudomonas putida and with Bacillus subtilis was inactive.

For `CCCCCCC[C@@H](O)C[C@H](O)Cc1cc(O)c(C)c(=O)o1`, the outcome in the assay on Pseudomonas putida and with Bacillus subtilis was inactive.

Regarding `Cc1c(O)cc(C[C@@H](O)C[C@H](O)CCCCCCCO)oc1=O`, the outcome in the assay with Pseudomonas putida and with Bacillus subtilis was inactive.

With `Cc1c(O)cc(C[C@@H](O)CCCCCCCO)oc1=O`, the outcome with Pseudomonas putida and with Bacillus subtilis was inactive.

Take `CCCCCCC[C@H]1Cc2cc(O)c(C(=O)O)c(O)c2[C@@H](O)O1`: the IC50 in assay [1] came to 9 µg/mL (≈ 27.7 µM); in assay [2], 6 µg/mL (≈ 18.5 µM). Also, the pIC50 in assay [3] is 5.51.

Take `O=C(O)c1c(O)cc2c(c1O)CO[C@@H](CCCCCCCO)C2`: the MIC in the assay with Saccharomyces cerevisiae turned out to be 100 µg/mL (≈ 308 µM). For the same molecule, the result in the assay on Pseudomonas putida and in the assay with Bacillus subtilis was inactive.

In the case of NYSTATIN, in the assay on Saccharomyces cerevisiae, the MIC is less than 5 µg/mL.
